The subject of one experiment is HEK-293 cells. Briefly: Cell viability assay (calcein fluorescence), parental HEK-293 cells. Type of experiment: cell-based. Conditions: parental HEK-293, 5-50 μM, 16 h. The procedure: Shown are HEK-293 cells (closed diamond) and HEK-293 cells stably transfected with a tet-controlled TRPM2 construct in the presence (open squares) or absence of (open diamonds) tetracycline. Cells incubated in the presence of 0-50 μM puromycin for 16 h were assayed for viability by measuring fluorescence of calcein in live cells. b.) Removal of calcium rescues cells from puromycin induced cell death. TRPM2-expressing HEK-293 cells were grown in complete DMEM media and 1 μg/ml tetracycline until 80-90% confluent. One set of cells were re-fed with the same complete media (closed diamonds) and the other set of cells were rinsed with PBS and fed with modified media containing 1 μg/ml tetracycline, 5 mM EGTA and without calcium chloride (open squares). […] HEK-293 (close diamond) and TRPM2 expressing HEK-293 cells in the absence (open diamond) or presence of (closed square) tetracycline were exposed to 0-10 μg/ml cycloheximide for 16 h. Cell viability was determined as described in (a).
HEK-293, tet-inducible HEK-293, and CRI-G1 cells were seeded into 6 well plates at a density of 500,000 cells per well. […] Calcein is retained in living, but not dead cells, where it undergoes catalytic conversion into a fluorescent compound Fluorescence in each well was measured in a microplate reader using excitation and emission filters at 485/530 nm, respectively.

In experiment [1] the test system is nuclear acetyltransferase. Briefly: Nuclear OAADPr acetyltransferase (OAADPr-metabolizing) activity in HEK-293 nuclear extract. Conditions: 100 μM puromycin, 60 min. Type of experiment: biochemical. The procedure:
Shown is the development of whole cell currents over time in TRPM2-expressing HEK-293 cells. Bath solution was standard ringer's, and pipette solution was Cs-based and included 10 mM EGTA to buffer intracellular Ca^2+ to 10 nM. The patch pipette contained various concentrations of (FIG. 1a) ADPr, (FIG. 1b) OAADPr (FIG. 1c) OAADPr and puromycin as indicated in the figure. FIG. 1d.) Cytoplasmic OAADPr esterase activity is inhibited by puromycin. 200 μM O-[^3H]AADPr and 0-100 μM puromycin were added to cytoplasmic HEK-293 extract for 30 min. Percent hydrolysis of O-[^3H]AADPr to [^3H]acetate was measured as described hereinbelow. FIG. 1e.) Nuclear OAADPr acetyltransferase activity is not inhibited by puromycin. HEK-293 nuclear extract was incubated with 200 μM O-[^3H]AADPr in the presence or absence of 100 μM puromycin for 60 min. The reactions were quenched and resolved by HPLC. The radioactivity in collected fractions was determined by liquid scintillation counting. FIGS. 1f-g.) In vivo detection of OAADPr. […]
Cytoplasmic and nuclear extracts were prepared from HEK-293 cells as previously described (22). […] Aliquots of the supernatant containing [^3H]acetate were removed and analyzed by liquid scintillation counting. […] Radioactivity in each elution fraction was measured by liquid scintillation counting.

The next experiment concerns CRI-G1 cells. The experiment can be described thus: Cell viability assay (calcein fluorescence), CRI-G1 cells. Type of experiment: cell-based, rat. Conditions: 0-40 μM puromycin, 16 h. The procedure: FIG. 4 a) OAADPr gates the endogenous TRPM2 channel in CRI-G1 cells. Left panel: Evolution of currents in CRI-G1 cells in the absence (grey squares) or presence (black circles) of OAADPr (120-250 μM). Shown are average leak subtracted currents from n=3 cells for each condition. Right panel: Representative leak subtracted whole cell I/V curves for peak currents observed in the absence (grey line) and presence (black line) of OAADPr. For the above measurements, CRI-G1 cells were maintained in the whole cell patch clamp configuration as previously described for HEK-293 cells (44). b) Puromycin leads to cell death in CRI-G1 cells. CRI-G1 cells were treated with 0-40 μM puromycin for 16 h. Cell viability was assessed by measuring fluorescence of calcein in live cells. Data obtained from 4 independent experiments were plotted as a percent change in fluorescence compared to those of untreated cells set at a 100%. Error bars indicate the standard deviation from the mean. (Inset) Nicotinamide rescues puromycin-induced death in CRI-G1 cells. […] Cell viability was assessed 16 h later as described above. […] Calcein is retained in living, but not dead cells, where it undergoes catalytic conversion into a fluorescent compound Fluorescence in each well was measured in a microplate reader using excitation and emission filters at 485/530 nm, respectively.

Data on 1 compound can be found in patent US8440638B2, “Compositions and methods for modulating calcium flux, glucose homeostasis and apoptosis” (Wisconsin Alumni Research Foundation, priority 2004, dated 2013).

For `COc1ccc(C[C@H](N)C(=O)N[C@H]2[C@@H](O)[C@H](n3cnc4c(N(C)C)ncnc43)O[C@@H]2CO)cc1` [puromycin], in the experiment with HEK-293 cells, the “cell death following puromycin treatment” value was “no significant cell death”. The “effect on nuclear OAADPr-metabolizing activity” value in experiment [1] is on record as “no effect”. Also, the “cell death of CRI-G1 cells” value in the experiment on CRI-G1 cells is reported as “dose-dependent death”.
